This is an account of results in patent US20030125234A1, “Alteration of protein stability” (priority 2001, published 2003).

Entries after “also recorded” stand apart in the source; their conditions may differ. Residues, ends and D or L forms follow the SMILES beside them.

Holding throughout (assay type): biochemical
The target in test [1] is T1, yeast alcohol dehydrogenase (ADH) (Saccharomyces cerevisiae, UniProt P00330).
T1 construct: purchased Sigma
T1 sequence (P00330 2-348 limits assumed): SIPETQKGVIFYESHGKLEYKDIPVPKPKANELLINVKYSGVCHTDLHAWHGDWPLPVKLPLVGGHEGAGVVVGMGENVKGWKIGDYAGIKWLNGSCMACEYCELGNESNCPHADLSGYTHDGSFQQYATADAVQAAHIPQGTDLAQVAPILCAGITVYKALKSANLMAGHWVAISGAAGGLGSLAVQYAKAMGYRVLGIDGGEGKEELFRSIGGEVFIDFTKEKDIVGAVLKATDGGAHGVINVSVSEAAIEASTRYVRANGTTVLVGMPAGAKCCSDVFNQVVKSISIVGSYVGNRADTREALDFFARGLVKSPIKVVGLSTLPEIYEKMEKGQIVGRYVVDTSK
Briefly: ADH oxidation-induced aggregation (turbidity at 360 nm), Cu(OP)2. The note with it: for inhibition index: ADH 1 mg/mL, 37° C., Cu(OP)2; for inhibition of ADH aggregation, in words: FIG. 1. In outline: (§1)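 Aggregation is scored as optical density at 360 nm over 1 h relative to untreated protein. Porcine somatotropin (1.27 mg/mL) is heated to 60° C in PEG 8000 (20 mg/mL); ADH (1 mg/mL) is oxidized with 7.76E-5 M Cu(OP)2 at 37° C; lysozyme and HLF (0.4 mg/mL) are reduced with 1.27E-4 M DTT at 25° C and 43° C.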

In another test the target is T2, bovine alpha-lactalbumin (Bos taurus, UniProt P00711).
T2 construct: purchased Sigma
T2 sequence (P00711 20-142): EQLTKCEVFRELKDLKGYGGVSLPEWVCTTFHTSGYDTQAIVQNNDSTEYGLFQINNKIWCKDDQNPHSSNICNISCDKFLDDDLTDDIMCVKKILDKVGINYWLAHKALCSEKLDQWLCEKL
The test is described as follows: Alpha-lactalbumin aggregation (turbidity at 360 nm) induced by DTT. Particulars: for inhibition index: α Lactalbumin 0.4 mg/mL, 37° C., DTT, compound 1,000×, standard deviation in parenthesis. In outline:
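Bovine alpha-lactalbumin (0.4 mg/mL (2.82E-5 M)) was prepared in 50 mM sodium phosphate, 100 mM sodium chloride and 2 mM EDTA, pH 6.2. Aggregation was triggered with 20 μL of 1 M DTT […] at 37° C. and followed for 1 hour as optical density at 360 nm, compared against protein without the dipolar compound.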

For test [2], the target named is T3, human apolactoferrin (HLF) (Homo sapiens, UniProt P02788).
T3 construct: purchased Sigma
T3 sequence (P02788 20-710): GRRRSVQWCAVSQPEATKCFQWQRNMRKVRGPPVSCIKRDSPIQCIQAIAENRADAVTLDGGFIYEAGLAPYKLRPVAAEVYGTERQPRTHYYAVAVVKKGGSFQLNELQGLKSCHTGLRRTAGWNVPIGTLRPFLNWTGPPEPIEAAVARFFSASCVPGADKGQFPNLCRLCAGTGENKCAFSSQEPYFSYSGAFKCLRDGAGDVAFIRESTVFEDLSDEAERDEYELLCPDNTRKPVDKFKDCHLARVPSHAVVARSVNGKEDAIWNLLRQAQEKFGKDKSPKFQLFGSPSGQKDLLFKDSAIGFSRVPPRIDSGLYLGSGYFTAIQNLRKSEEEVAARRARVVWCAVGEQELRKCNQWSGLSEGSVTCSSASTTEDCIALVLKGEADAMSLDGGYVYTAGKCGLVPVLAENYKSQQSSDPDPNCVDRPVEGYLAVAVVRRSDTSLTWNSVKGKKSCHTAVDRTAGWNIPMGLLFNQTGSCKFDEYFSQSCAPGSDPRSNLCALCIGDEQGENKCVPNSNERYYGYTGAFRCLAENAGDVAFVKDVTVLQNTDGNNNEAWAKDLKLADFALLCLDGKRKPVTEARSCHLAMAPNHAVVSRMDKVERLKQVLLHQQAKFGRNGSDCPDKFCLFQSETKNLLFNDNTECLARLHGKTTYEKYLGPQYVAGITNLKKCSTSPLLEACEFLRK
The test is described as follows: HLF aggregation (turbidity at 360 nm) induced by DTT. The note with it: for inhibition index: HLF 0.4 mg/mL, 43° C., DTT, head 10,000×, standard deviation in parenthesis. In outline:
as §1

Test [3] has as its target T4, chicken egg white lysozyme (Gallus gallus, UniProt P00698).
T4 construct: chicken egg white lysozyme [Sigma]; purchased Sigma; host or cells: egg white
Briefly: Lysozyme aggregation (turbidity at 360 nm) induced by DTT. The note with it: for inhibition index: Lysozyme 0.4 mg/mL, 25° C., DTT, compound 1,000×, standard deviation in parenthesis. In outline: as §1

Setting [4] is: compound 10,000X molar excess, Infinite = complete inhibition of aggregation over one hour.
The mark [5] stands for this setting: compound 1,000X, standard deviation in parenthesis.

T4 sequence (P00698 19-147): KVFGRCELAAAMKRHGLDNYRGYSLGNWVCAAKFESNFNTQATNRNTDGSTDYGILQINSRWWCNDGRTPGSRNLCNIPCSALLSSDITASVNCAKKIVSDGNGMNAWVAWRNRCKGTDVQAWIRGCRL

For `NCCCN` [1,3-diaminopropane], the inhibition index in test [1] (setting [4]) is 0.7 (0.1); on bovine alpha-lactalbumin, 0.9 (0.3); in test [2] (second HLF column), 31.5 (12.0); in test [3], 2.7 (0.4).

In the case of `NCCCCN` [1,4-diaminobutane], the inhibition index in test [1] (setting [4]) is listed as 0.8 (0.1); at bovine alpha-lactalbumin it was 1.0 (0.2); in test [2] (second HLF column) it was 34.5 (13.0); in test [3] it was 1.6 (0.2).

With `NCCCCCN` [1,5-diaminopentane], the inhibition index is listed as 0.9 (0.0) in test [1] (setting [4]), 0.9 (0.0) at bovine alpha-lactalbumin, 28.8 (13.3) in test [2] (second HLF column) and 1.3 (0.3) in test [3].

`NCCCCCCN` [1,6-diaminohexane]: the inhibition index in test [1] (setting [4]) is 0.8 (0.0); on bovine alpha-lactalbumin it was 1.3 (0.4); in test [2] (second HLF column), 18.0 (4.9); in test [3], 1.0 (0.1).

For the compound `NCCCCCCCN` [1,7-diaminoheptane], the inhibition index is recorded as 0.6 (0.1) in test [1] (setting [4]), 1.8 (0.7) at bovine alpha-lactalbumin, 11.0 (2.1) in test [2] (second HLF column) and 1.0 (0.3) in test [3].

Consider `NCCCC(=O)O` [4-aminobuytrate, 4-aminobutyric acid], for which the inhibition index in test [1] (setting [4]) is given as 2.0 (0.1); at bovine alpha-lactalbumin it was 2.0 (0.8); in test [2] (second HLF column) it was 9.5 (1.9); in test [3], 1.4 (0.4).

As for `NCCCCC(=O)O` [5-aminovalerate, 5-aminovaleric acid], the inhibition index is recorded as 2.7 (0.9) in test [1] (setting [4]), 2.1 (0.8) at bovine alpha-lactalbumin, 8.4 (2.6) in test [2] (second HLF column) and 1.5 (0.4) in test [3].

In the case of `NCCCCCC(=O)O` [6-aminocaproate, 6-aminocaproic acid], the inhibition index was 3.2 (0.3) in test [1] (setting [4]), 2.3 (0.6) at bovine alpha-lactalbumin, 7.9 (3.4) in test [2] (second HLF column) and 0.8 (0.2) in test [3].

Consider `NCCCCCCC(=O)O` [7-aminoheptanoate, 7-aminoheptanoic acid], for which the inhibition index in test [1] (setting [4]) is on record as 4.9 (0.5); at bovine alpha-lactalbumin, 3.9 (2.1); in test [2] (second HLF column), 4.7 (0.7); in test [3] it was 1.3 (0.2). The “inhibition of α-lactalbumin aggregation, in words” value on bovine alpha-lactalbumin is reported as “Potent inhibitors”.

For `O=C(O)CCCCC(=O)O` [adipate, adipic acid], the inhibition index is 4.9 (0.9) in test [1] (setting [4]), 1.2 (0.3) on bovine alpha-lactalbumin, 113.0 in test [2] (second HLF column) and 1.4 (0.8) in test [3].

On to `NCCC(=O)O` [beta-alanine], for which the inhibition index in test [1] (setting [4]) is listed as 2.2 (0.3); at bovine alpha-lactalbumin it was 2.1 (0.4); in test [2] (second HLF column) it was 24.2 (4.4); in test [3] it was 1.1 (0.3). Further, the “inhibition of lactoferrin (HLF) aggregation, in words” value in test [2] was “effective inhibitors”.

On to `NCCN` [ethylenediamine], for which the inhibition index in test [1] (setting [4]) is listed as 202.6 (69.7); at bovine alpha-lactalbumin, 0.7 (0.4); in test [2] (second HLF column), 44.5 (13.9); in test [3], 70.2 (6.8). The “inhibition of ADH aggregation, in words” value in test [1] is “effective inhibitors”. Further, the “inhibition of lysozyme aggregation, in words” value in test [3] is listed as “effective inhibitors; also recorded: strongly inhibited”.

As to `O=C(O)CCCC(=O)O` [glutarate, glutaric acid], the inhibition index in test [1] (setting [4]) is recorded as 1.8 (0.4); on bovine alpha-lactalbumin, 1.1 (0.2); in test [2] (second HLF column), 49.7 (28.9); in test [3], 1.2 (0.3).

`NCC(=O)O` [glycine]: the inhibition index is 54.3 (4.5) in test [1] (setting [4]), 1.4 (0.3) on bovine alpha-lactalbumin, 1.5 (0.1) in test [2] (second HLF column) and 1.0 (0.2) in test [3]. In addition, the “inhibition of ADH aggregation, in words” value in test [1] is recorded as “Potent inhibition; also recorded: effective inhibitors”.

For `O=C([O-])CC(=O)[O-].[Na+].[Na+]` [malonate, sodium malonate], the inhibition index was 18.9 (6.6) in test [1] (setting [4]), 1.8 (0.1) at bovine alpha-lactalbumin, 1714.1 in test [2] (second HLF column) and 1.5 (0.4) in test [3].

Take `O=C(O)C(=O)O` [oxalate, oxalic acid]: in test [1], the “inhibition of ADH aggregation, in words” value is recorded as “most potent inhibitor; also recorded: effective inhibitors”. The inhibition index at bovine alpha-lactalbumin is listed as 1.3 (0.2); in test [2] (second HLF column) it was 666.9; in test [3], 1.6 (1.0).

For `O=C(O)CCCCCC(=O)O` [pimelate, pimelic acid], the inhibition index is given as 9.0 (1.3) in test [1] (setting [4]), 1.3 (0.3) on bovine alpha-lactalbumin, 78.9 (68.2) in test [2] (second HLF column) and 2.0 (0.7) in test [3].

In the case of `O=C(O)CCCCCCC(=O)O` [suberate, suberic acid], the inhibition index is 15.5 (1.4) in test [1] (setting [4]), 2.0 (0.7) on bovine alpha-lactalbumin, 95.4 (34.6) in test [2] (second HLF column) and 1.4 (0.2) in test [3].

Turning to `O=C(O)CCC(=O)O` [succinate, succinic acid], the inhibition index in test [1] (setting [4]) is 2.7 (0.7); on bovine alpha-lactalbumin it was 1.1 (0.3); in test [2] (second HLF column) it was 33.7 (11.9); in test [3] it was 1.0 (0.3).

On to `NCC(=O)NCC(=O)NCC(=O)O` [triglycine] (H-Gly-Gly-Gly-OH), for which the inhibition index in test [1] (setting [5]) is 5.0 (1.4); in test [1] (setting [4]), 187.6 (46.1); on bovine alpha-lactalbumin it was 0.9 (0.1); in test [2] (first HLF column) it was 0.2 (0.1); in test [2] (second HLF column) it was 5.7 (4.0); in test [3] it was 1.6 (0.3).

For Glu-Glu, the inhibition index was 1.4 (0.2) in test [1] (setting [5]); 5.3 (1.2) in test [1] (setting [4]); 1.0 (0.1) on bovine alpha-lactalbumin; 9.8 (0.8) in test [2] (first HLF column); 2.1 in test [2] (second HLF column); 1.2 (0.7) in test [3].

Consider Lys-Lys, for which the inhibition index in test [1] (setting [5]) is 1.4 (0.2); in test [1] (setting [4]) it was 2.7; at bovine alpha-lactalbumin, 1.0 (0.1); in test [2] (first HLF column) it was 13.5 (1.2); in test [2] (second HLF column), 11.2; in test [3], 1.3 (0.1).

Regarding diglycine, the inhibition index in test [1] (setting [5]) is listed as 4.0 (0.9); in test [1] (setting [4]), 0.7 (0.1); on bovine alpha-lactalbumin it was 1.0 (0.0); in test [2] (first HLF column), 7.4 (1.0); in test [2] (second HLF column), 10.0; in test [3], 0.9 (0.0).

As to pentaglycine, the inhibition index in test [1] (setting [5]) is on record as 5.8 (3.1); in test [1] (setting [4]) it was “Infinite^4”; on bovine alpha-lactalbumin, 3.1 (1.2); in test [2] (first HLF column) it was 979.0 (7.5); in test [2] (second HLF column), 0.5 (0.0); in test [3] it was 0.2 (0.1). The “inhibition of α-lactalbumin aggregation, in words” value against bovine alpha-lactalbumin is reported as “Potent inhibitors”.

As to tetraglycine, the inhibition index in test [1] (setting [5]) is 8.4 (2.7); in test [1] (setting [4]), 5313.1; on bovine alpha-lactalbumin, 1.3 (0.4); in test [2] (first HLF column), 8.3 (9.5); in test [2] (second HLF column) it was 0.1; in test [3], 2.1 (0.5).
